# Measurements published in the NIST ThermoML archive (doi:10.1021/je049591p).
# Numbers after ± are expanded uncertainties.
# What was measured:
# [1] = xn = mol fraction of the nth substance listed; conditions: Ring tensiometer
# [2] = for surface tension liquid-gas: Ring tensiometer; for mass density: 101.33 kPa, Liquid
smiles,measurement,setting,value
OCc1ccccc1 [benzenemethanol] + OCCO,surface tension liquid-gas,"[1]; 293.15 K, x1 = 0.0319",47.78 ± 0.83 mN/m
same,surface tension liquid-gas,"[1]; 293.15 K, x1 = 0.0535",47.45 ± 0.82 mN/m
same,surface tension liquid-gas,"[1]; 293.15 K, x1 = 0.0727",47.13 ± 0.82 mN/m
same,surface tension liquid-gas,"[1]; 293.15 K, x1 = 0.0854",46.69 ± 0.81 mN/m
same,surface tension liquid-gas,"[1]; 293.15 K, x1 = 0.1118",45.87 ± 0.8 mN/m
same,surface tension liquid-gas,"[1]; 293.15 K, x1 = 0.206",44.07 ± 0.77 mN/m
same,surface tension liquid-gas,"[1]; 293.15 K, x1 = 0.2633",42.87 ± 0.76 mN/m
same,surface tension liquid-gas,"[1]; 293.15 K, x1 = 0.3883",41.53 ± 0.74 mN/m
same,surface tension liquid-gas,"[1]; 293.15 K, x1 = 0.5596",40.58 ± 0.73 mN/m
same,surface tension liquid-gas,"[1]; 293.15 K, x1 = 0.7394",39.44 ± 0.71 mN/m
same,surface tension liquid-gas,"[1]; 293.15 K, x1 = 0.9101",39.28 ± 0.71 mN/m
same,surface tension liquid-gas,"[1]; 293.15 K, x1 = 1",39.05 ± 0.71 mN/m
same,surface tension liquid-gas,"[1]; 298.15 K, x1 = 0.0319",47.35 ± 0.82 mN/m
same,surface tension liquid-gas,"[1]; 298.15 K, x1 = 0.0535",47.01 ± 0.81 mN/m
same,surface tension liquid-gas,"[1]; 298.15 K, x1 = 0.0727",46.67 ± 0.81 mN/m
same,surface tension liquid-gas,"[1]; 298.15 K, x1 = 0.0854",46.19 ± 0.8 mN/m
same,surface tension liquid-gas,"[1]; 298.15 K, x1 = 0.1118",45.43 ± 0.79 mN/m
same,surface tension liquid-gas,"[1]; 298.15 K, x1 = 0.206",43.61 ± 0.77 mN/m
same,surface tension liquid-gas,"[1]; 298.15 K, x1 = 0.2633",42.42 ± 0.75 mN/m
same,surface tension liquid-gas,"[1]; 298.15 K, x1 = 0.3883",41.07 ± 0.73 mN/m
same,surface tension liquid-gas,"[1]; 298.15 K, x1 = 0.5596",40.18 ± 0.72 mN/m
same,surface tension liquid-gas,"[1]; 298.15 K, x1 = 0.7394",38.95 ± 0.71 mN/m
same,surface tension liquid-gas,"[1]; 298.15 K, x1 = 0.9101",38.79 ± 0.71 mN/m
same,surface tension liquid-gas,"[1]; 298.15 K, x1 = 1",38.58 ± 0.71 mN/m
same,surface tension liquid-gas,"[1]; 303.15 K, x1 = 0.0319",46.92 ± 0.81 mN/m
same,surface tension liquid-gas,"[1]; 303.15 K, x1 = 0.0535",46.53 ± 0.81 mN/m
same,surface tension liquid-gas,"[1]; 303.15 K, x1 = 0.0727",46.15 ± 0.8 mN/m
same,surface tension liquid-gas,"[1]; 303.15 K, x1 = 0.0854",45.76 ± 0.8 mN/m
same,surface tension liquid-gas,"[1]; 303.15 K, x1 = 0.1118",44.9 ± 0.78 mN/m
same,surface tension liquid-gas,"[1]; 303.15 K, x1 = 0.206",43.08 ± 0.76 mN/m
same,surface tension liquid-gas,"[1]; 303.15 K, x1 = 0.2633",41.87 ± 0.74 mN/m
same,surface tension liquid-gas,"[1]; 303.15 K, x1 = 0.3883",40.61 ± 0.72 mN/m
same,surface tension liquid-gas,"[1]; 303.15 K, x1 = 0.5596",39.68 ± 0.71 mN/m
same,surface tension liquid-gas,"[1]; 303.15 K, x1 = 0.7394",38.45 ± 0.7 mN/m
same,surface tension liquid-gas,"[1]; 303.15 K, x1 = 0.9101",38.3 ± 0.7 mN/m
same,surface tension liquid-gas,"[1]; 303.15 K, x1 = 1",38.12 ± 0.7 mN/m
same,surface tension liquid-gas,"[1]; 308.15 K, x1 = 0.0319",46.54 ± 0.81 mN/m
same,surface tension liquid-gas,"[1]; 308.15 K, x1 = 0.0535",46.07 ± 0.8 mN/m
same,surface tension liquid-gas,"[1]; 308.15 K, x1 = 0.0727",45.72 ± 0.8 mN/m
same,surface tension liquid-gas,"[1]; 308.15 K, x1 = 0.0854",45.31 ± 0.79 mN/m
same,surface tension liquid-gas,"[1]; 308.15 K, x1 = 0.1118",44.46 ± 0.78 mN/m
same,surface tension liquid-gas,"[1]; 308.15 K, x1 = 0.206",42.6 ± 0.75 mN/m
same,surface tension liquid-gas,"[1]; 308.15 K, x1 = 0.2633",41.39 ± 0.73 mN/m
same,surface tension liquid-gas,"[1]; 308.15 K, x1 = 0.3883",40.14 ± 0.72 mN/m
same,surface tension liquid-gas,"[1]; 308.15 K, x1 = 0.5596",39.24 ± 0.71 mN/m
same,surface tension liquid-gas,"[1]; 308.15 K, x1 = 0.7394",37.94 ± 0.69 mN/m
same,surface tension liquid-gas,"[1]; 308.15 K, x1 = 0.9101",37.79 ± 0.69 mN/m
same,surface tension liquid-gas,"[1]; 308.15 K, x1 = 1",37.63 ± 0.69 mN/m
same,surface tension liquid-gas,"[1]; 313.15 K, x1 = 0.0319",46.14 ± 0.8 mN/m
same,surface tension liquid-gas,"[1]; 313.15 K, x1 = 0.0535",45.66 ± 0.79 mN/m
same,surface tension liquid-gas,"[1]; 313.15 K, x1 = 0.0727",45.26 ± 0.79 mN/m
same,surface tension liquid-gas,"[1]; 313.15 K, x1 = 0.0854",44.85 ± 0.78 mN/m
same,surface tension liquid-gas,"[1]; 313.15 K, x1 = 0.1118",44.04 ± 0.77 mN/m
same,surface tension liquid-gas,"[1]; 313.15 K, x1 = 0.206",42.12 ± 0.74 mN/m
same,surface tension liquid-gas,"[1]; 313.15 K, x1 = 0.2633",40.84 ± 0.72 mN/m
same,surface tension liquid-gas,"[1]; 313.15 K, x1 = 0.3883",39.7 ± 0.71 mN/m
same,surface tension liquid-gas,"[1]; 313.15 K, x1 = 0.5596",38.77 ± 0.7 mN/m
same,surface tension liquid-gas,"[1]; 313.15 K, x1 = 0.7394",37.51 ± 0.68 mN/m
same,surface tension liquid-gas,"[1]; 313.15 K, x1 = 0.9101",37.35 ± 0.68 mN/m
same,surface tension liquid-gas,"[1]; 313.15 K, x1 = 1",37.16 ± 0.68 mN/m
same,surface tension liquid-gas,"[1]; 318.15 K, x1 = 0.0319",45.71 ± 0.79 mN/m
same,surface tension liquid-gas,"[1]; 318.15 K, x1 = 0.0535",45.24 ± 0.79 mN/m
same,surface tension liquid-gas,"[1]; 318.15 K, x1 = 0.0727",44.86 ± 0.78 mN/m
same,surface tension liquid-gas,"[1]; 318.15 K, x1 = 0.0854",44.41 ± 0.78 mN/m
same,surface tension liquid-gas,"[1]; 318.15 K, x1 = 0.1118",43.53 ± 0.76 mN/m
same,surface tension liquid-gas,"[1]; 318.15 K, x1 = 0.206",41.67 ± 0.74 mN/m
same,surface tension liquid-gas,"[1]; 318.15 K, x1 = 0.2633",40.4 ± 0.72 mN/m
same,surface tension liquid-gas,"[1]; 318.15 K, x1 = 0.3883",39.24 ± 0.7 mN/m
same,surface tension liquid-gas,"[1]; 318.15 K, x1 = 0.5596",38.27 ± 0.69 mN/m
same,surface tension liquid-gas,"[1]; 318.15 K, x1 = 0.7394",36.99 ± 0.67 mN/m
same,surface tension liquid-gas,"[1]; 318.15 K, x1 = 0.9101",36.84 ± 0.68 mN/m
same,surface tension liquid-gas,"[1]; 318.15 K, x1 = 1",36.63 ± 0.68 mN/m
same,surface tension liquid-gas,"[1]; 323.15 K, x1 = 0.0319",45.26 ± 0.79 mN/m
same,surface tension liquid-gas,"[1]; 323.15 K, x1 = 0.0535",44.79 ± 0.78 mN/m
same,surface tension liquid-gas,"[1]; 323.15 K, x1 = 0.0727",44.32 ± 0.77 mN/m
same,surface tension liquid-gas,"[1]; 323.15 K, x1 = 0.0854",43.91 ± 0.77 mN/m
same,surface tension liquid-gas,"[1]; 323.15 K, x1 = 0.1118",43.06 ± 0.76 mN/m
same,surface tension liquid-gas,"[1]; 323.15 K, x1 = 0.206",41.16 ± 0.73 mN/m
same,surface tension liquid-gas,"[1]; 323.15 K, x1 = 0.2633",39.9 ± 0.71 mN/m
same,surface tension liquid-gas,"[1]; 323.15 K, x1 = 0.3883",38.76 ± 0.69 mN/m
same,surface tension liquid-gas,"[1]; 323.15 K, x1 = 0.5596",37.79 ± 0.68 mN/m
same,surface tension liquid-gas,"[1]; 323.15 K, x1 = 0.7394",36.53 ± 0.67 mN/m
same,surface tension liquid-gas,"[1]; 323.15 K, x1 = 0.9101",36.38 ± 0.67 mN/m
same,surface tension liquid-gas,"[1]; 323.15 K, x1 = 1",36.18 ± 0.67 mN/m
"OCCO [1,2-ethanediol] + OCc1ccccc1",surface tension liquid-gas,"[1]; 293.15 K, x2 = 0",48.42 ± 0.84 mN/m
same,surface tension liquid-gas,"[1]; 298.15 K, x2 = 0",48.03 ± 0.83 mN/m
same,surface tension liquid-gas,"[1]; 303.15 K, x2 = 0",47.57 ± 0.82 mN/m
same,surface tension liquid-gas,"[1]; 308.15 K, x2 = 0",47.2 ± 0.82 mN/m
same,surface tension liquid-gas,"[1]; 313.15 K, x2 = 0",46.78 ± 0.81 mN/m
same,surface tension liquid-gas,"[1]; 318.15 K, x2 = 0",46.42 ± 0.8 mN/m
same,surface tension liquid-gas,"[1]; 323.15 K, x2 = 0",46.02 ± 0.8 mN/m
"OCCO [1,2-ethanediol]",surface tension liquid-gas,[2]; 293.15 K,48.42 ± 0.84 mN/m
same,mass density,[2]; 293.15 K,1113.34 ± 1 kg/m3
same,surface tension liquid-gas,[2]; 298.15 K,48.03 ± 0.83 mN/m
same,surface tension liquid-gas,[2]; 303.15 K,47.57 ± 0.82 mN/m
same,mass density,[2]; 303.15 K,1106.36 ± 0.93 kg/m3
same,surface tension liquid-gas,[2]; 308.15 K,47.2 ± 0.82 mN/m
same,surface tension liquid-gas,[2]; 313.15 K,46.78 ± 0.81 mN/m
same,mass density,[2]; 313.15 K,1098.39 ± 0.84 kg/m3
same,surface tension liquid-gas,[2]; 318.15 K,46.42 ± 0.8 mN/m
same,surface tension liquid-gas,[2]; 323.15 K,46.02 ± 0.8 mN/m
same,mass density,[2]; 323.15 K,1091.05 ± 0.77 kg/m3
OCc1ccccc1 [benzenemethanol],surface tension liquid-gas,[2]; 293.15 K,39.05 ± 0.71 mN/m
same,mass density,[2]; 293.15 K,1045.2 ± 1 kg/m3
same,surface tension liquid-gas,[2]; 298.15 K,38.58 ± 0.71 mN/m
same,mass density,[2]; 298.15 K,1041.4 ± 1 kg/m3
same,surface tension liquid-gas,[2]; 303.15 K,38.12 ± 0.7 mN/m
same,mass density,[2]; 303.15 K,1037.5 ± 0.9 kg/m3
same,surface tension liquid-gas,[2]; 308.15 K,37.63 ± 0.69 mN/m
same,mass density,[2]; 308.15 K,1033.6 ± 0.9 kg/m3
same,surface tension liquid-gas,[2]; 313.15 K,37.16 ± 0.68 mN/m
same,mass density,[2]; 313.15 K,1029.8 ± 0.8 kg/m3
same,surface tension liquid-gas,[2]; 318.15 K,36.63 ± 0.68 mN/m
same,mass density,[2]; 318.15 K,1025.8 ± 0.8 kg/m3
same,surface tension liquid-gas,[2]; 323.15 K,36.18 ± 0.67 mN/m
same,mass density,[2]; 323.15 K,1021.9 ± 0.8 kg/m3
